SMILES strings stand for the structures. Bounds are passed on as bounds.

In test [1] the test system is JAK1/TYK2 pSTAT5 (Tyr694/699) in THP-1 cell line. In words: IFNa-stimulated JAK1/TYK2 pSTAT5 (Tyr694/699) inhibition cellular assay, AlphaLISA. Type of test: cell-based. As to conditions: Homo sapiens; THP-1 cells, IFNa-stimulated, AlphaLISA (Assay B); read-out: Cellular_THP1_IFNa-pSTATS_TYK2. The method, boiled down:
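THP-1 cells (2e4/well in HBSS) were preincubated with compound (8 points, 6-fold steps from 10000 nM final) for 1 h at 37 °C, then stimulated with IFNa (added at 100 ng/mL) for 30 min. Lysate pSTAT5 was read by AlphaLISA at 615 nm. IC50 came from a 4-parameter fit with bottom 0 and Hill −1.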
In general terms: Bead proximity is the source of the signal in Alpha formats.

In test [2] the target is T1, TYK2 JH2 (Homo sapiens, UniProt P29597).
T1 construct: purchased DiscoverX (KINOMEscan KdELECT service); host or cells: E. coli BL21-derived (T7 phage display) or HEK-293
T1 sequence (P29597 589-875 limits assumed): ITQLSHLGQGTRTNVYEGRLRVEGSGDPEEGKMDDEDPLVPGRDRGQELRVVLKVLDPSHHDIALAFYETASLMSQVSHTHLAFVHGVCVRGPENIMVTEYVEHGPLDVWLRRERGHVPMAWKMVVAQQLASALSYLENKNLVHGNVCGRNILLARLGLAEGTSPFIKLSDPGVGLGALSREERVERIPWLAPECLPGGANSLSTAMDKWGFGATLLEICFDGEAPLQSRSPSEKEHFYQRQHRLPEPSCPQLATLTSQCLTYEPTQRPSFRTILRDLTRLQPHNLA
In words: TYK2 JH2 binding assay (KINOMEscan KdELECT competitive binding). As to conditions: TYK2 JH2 domain, KINOMEscan KdELECT (Assay A); read-out: Biochemical TYK2_DiscoverX_JH2_BND_Kd. The procedure, abridged:
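Kd values come from qPCR measurement of kinase retained on an immobilized-ligand resin after 1 h room-temperature competition with compound in an 11-point, 3-fold series.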

`CNc1ncc(-c2nc3cc(N4CCO[C@@H](C)C4)ccc3o2)c2cc(NC(=O)C3CC3)nnc12` [Example 890, (S)—N-(8-(methylamino)-5-(5-(2-methylmorpholino)benzo[d]oxazol-2-yl)pyrido[3,4-c]pyridazin-3-yl)cyclopropanecarboxamide]: the IC50 in test [1] is at most 500 nM. Besides, in test [2], the Kd was at most 100 nM.
Taken in the same sequence, the figures for `CNc1ncc(C#Cc2ccc(OC3CN(C(C)=O)C3)cc2)c2cc(NC(=O)C3CC3)nnc12` [Example 893, N-(5-((4-((1-acetylazetidin-3-yl)oxy)phenyl)ethynyl)-8-(methylamino)pyrido[3,4-c]pyridazin-3-yl)cyclopropanecarboxamide] were at most 500 nM and at most 100 nM.
Taken in the same sequence, the figures for `CNc1ncc(C#Cc2ccc3c(c2)OCCO3)c2cc(NC(=O)C3CC3)ncc12` [Example 894, N-(5-((2,3-dihydrobenzo[b][1,4]dioxin-6-yl)ethynyl)-8-(methylamino)-2,7-naphthyridin-3-yl)cyclopropanecarboxamide] were at most 500 nM and at most 100 nM.
Taken in the same sequence, the figures for `CNc1ncc(C#Cc2ccc3c(c2)OC=CO3)c2cc(NC(=O)C3CC3)ncc12` [Example 895, N-(5-(benzo[b][1,4]dioxin-6-ylethynyl)-8-(methylamino)-2,7-naphthyridin-3-yl)cyclopropanecarboxamide] were at most 500 nM and at most 100 nM.
In the case of `CNc1ncc(C#Cc2ccc(C3CCN(C)C3=O)cc2)c2cc(NC(=O)C3CC3)ncc12` (stereo not shown) [Example 896, N-(5-((4-(1-methyl-2-oxopyrrolidin-3-yl)phenyl)ethynyl)-8-(methylamino)-2,7-naphthyridin-3-yl)cyclopropanecarboxamide], the IC50 in test [1] was at most 500 nM. Besides, the Kd in test [2] was at most 100 nM.
Taken in the same sequence, the figures for `CNc1ncc(C#Cc2cn(C)c(C(F)(F)F)n2)c2cc(NC(=O)C3CC3)ncc12` [Example 897, N-(5-((1-methyl-2-(trifluoromethyl)-1H-imidazol-4-yl)ethynyl)-8-(methylamino)-2,7-naphthyridin-3-yl)cyclopropanecarboxamide] were at most 500 nM and at most 100 nM.
For `[2H]C([2H])([2H])n1cc(C#Cc2cnc(NC)c3cnc(NC(=O)C4CC4)cc23)nc1C` [Example 898, N-(5-((2-methyl-1-(methyl-d3)-1H-imidazol-4-yl)ethynyl)-8-(methylamino)-2,7-naphthyridin-3-yl)cyclopropanecarboxamide], in that order: at most 500 nM and at most 100 nM.
For `CNc1ncc(C#Cc2cn3c(n2)CCCC3)c2cc(NC(=O)C3CC3)ncc12` [Example 899, N-(8-(methylamino)-5-((5,6,7,8-tetrahydroimidazo[1,2-a]pyridin-2-yl)ethynyl)-2,7-naphthyridin-3-yl)cyclopropanecarboxamide], in that order: at most 500 nM and at most 100 nM.
On to `[2H]C([2H])([2H])n1ccc(C#Cc2cnc(NC)c3cnc(NC(=O)C4CC4)cc23)n1` [Example 900, N-(5-((1-(methyl-d3)-1H-pyrazol-3-yl)ethynyl)-8-(methylamino)-2,7-naphthyridin-3-yl)cyclopropanecarboxamide], for which the IC50 in test [1] is at most 500 nM. Moreover, the Kd in test [2] is at most 100 nM.
For `[2H]C([2H])([2H])n1nccc1C#Cc1cnc(NC)c2cnc(NC(=O)C3CC3)cc12` [Example 901, N-(5-((1-(methyl-d3)-1H-pyrazol-5-yl)ethynyl)-8-(methylamino)-2,7-naphthyridin-3-yl)cyclopropanecarboxamide], in that order: at most 500 nM and at most 100 nM.
For `[2H]C([2H])([2H])n1c(C#Cc2cnc(NC)c3cnc(NC(=O)C4CC4)cc23)cnc1C` [Example 902, N-(5-((2-methyl-1-(methyl-d3)-1H-imidazol-5-yl)ethynyl)-8-(methylamino)-2,7-naphthyridin-3-yl)cyclopropanecarboxamide], in that order: at most 500 nM and at most 100 nM.
Taken in the same sequence, the figures for `[2H]C([2H])([2H])Nc1ncc(C#Cc2cn(C)c(C)n2)c2cc(NC(=O)[C@H]3C[C@H]3C)ncc12` [Example 903, (1S,2R)-N-(5-((1,2-dimethyl-1H-imidazol-4-yl)ethynyl)-8-((methyl-d3)amino)-2,7-naphthyridin-3-yl)-2-methylcyclopropane-1-carboxamide] were at most 500 nM and at most 100 nM.
In the case of `CNc1ncc(C#Cc2ccc(OC)c(C)n2)c2cc(NC(=O)C3CC3)ncc12` [Example 904, N-(5-((5-methoxy-6-methylpyridin-2-yl)ethynyl)-8-(methylamino)-2,7-naphthyridin-3-yl)cyclopropanecarboxamide], the IC50 in test [1] was at most 500 nM. The Kd in test [2] was at most 100 nM.
Taken in the same sequence, the figures for `CNc1ncc(-c2nc3ccc(N4CCOCC4)cc3o2)c2cc(NC(=O)C3CC3)nnc12` [Example 913, N-(8-(methylamino)-5-(6-morpholinobenzo[d]oxazol-2-yl)pyrido[3,4-c]pyridazin-3-yl)cyclopropanecarboxamide] were at most 500 nM and at most 100 nM.
For `CNc1ncc(-c2nc3cc(N4CCOCC4)ccc3o2)c2cc(NC(=O)C3CC3)nnc12` [Example 914, N-(8-(methylamino)-5-(5-morpholinobenzo[d]oxazol-2-yl)pyrido[3,4-c]pyridazin-3-yl)cyclopropancarboxamide], in that order: at most 500 nM and at most 100 nM.
For `CNc1ncc(C#Cc2ccc(OC3CN(C(C)=O)C3)cc2)c2cc(NC(=O)C3(F)CC3)nnc12` [Example 915, N-(5-((4-((1-acetylazetidin-3-yl)oxy)phenyl)ethynyl)-8-(methylamino)pyrido[3,4-c]pyridazin-3-yl)-1-fluorocyclopropane-1-carboxamide], in that order: above 500 nM and at most 100 nM.
As to `CNc1ncc(-c2nc3cc(N4CCC(F)CC4)ccc3o2)c2cc(NC(=O)C3CC3)ncc12` [Example 916, N-[5-[5-(4-fluoro-1-piperidyl)-1,3-benzoxazol-2-yl]-8-(methylamino)-2,7-naphthyridin-3-yl]cyclopropanecarboxamide], the IC50 in test [1] was at most 500 nM. The Kd in test [2] was at most 100 nM.
For `CNc1ncc(-c2nc3cc(N4CCCC4)ccc3o2)c2cc(NC(=O)C3CC3)ncc12` [Example 917, N-[8-(methylamino)-5-(5-pyrrolidin-1-yl-1,3-benzoxazol-2-yl)-2,7-naphthyridin-3-yl]cyclopropanecarboxamide], in that order: at most 500 nM and at most 100 nM.
On to `CNc1ncc(-c2nc3cc(N4CCOC(COC)C4)ccc3o2)c2cc(NC(=O)C3CC3)ncc12` (stereo not shown) [Example 918, N-(5-(5-(2-(methoxymethyl)morpholino)benzo[d]oxazol-2-yl)-8-(methylamino)-2,7-naphthyridin-3-yl)cyclopropanecarboxamide], for which the IC50 in test [1] was at most 500 nM. Further, the Kd in test [2] was at most 100 nM.
For `CNc1ncc(-c2nc3cc(N4CCOC(C(F)(F)F)C4)ccc3o2)c2cc(NC(=O)C3CC3)ncc12` (stereo not shown) [Example 921, N-(8-(methylamino)-5-(5-(2-(trifluoromethyl)morpholino)benzo[d]oxazol-2-yl)-2,7-naphthyridin-3-yl)cyclopropanecarboxamide], in that order: at most 500 nM and at most 100 nM.
Taken in the same sequence, the figures for `CNc1ncc(-c2nc3cc(N4CCOC(C(C)(C)O)C4)ccc3o2)c2cc(NC(=O)C3CC3)ncc12` (stereo not shown) [Example 924, N-(5-(5-(2-(2-hydroxypropan-2-yl)morpholino)benzo[d]oxazol-2-yl)-8-(methylamino)-2,7-naphthyridin-3-yl)cyclopropanecarboxamide] were at most 500 nM and at most 100 nM.
Taken in the same sequence, the figures for `CNc1ncc(-c2nc3cc(N4CC(C)(O)C4)ccc3o2)c2cc(NC(=O)C3CC3)ncc12` [Example 927, N-(5-(5-(3-hydroxy-3-methylazetidin-1-yl)benzo[d]oxazol-2-yl)-8-(methylamino)-2,7-naphthyridin-3-yl)cyclopropanecarboxamide] were at most 500 nM and at most 100 nM.
Regarding `CNc1ncc(-c2nc3cnc(C)cc3o2)c2cc(NC(=O)C3CC3)ncc12` [Example 928, N-(8-(methylamino)-5-(6-methyloxazolo[4,5-c]pyridin-2-yl)-2,7-naphthyridin-3-yl)cyclopropanecarboxamide], the IC50 in test [1] is at most 500 nM. Also, in test [2], the Kd is at most 100 nM.
For `CNc1ncc(-c2nc3cc(N4CCOCC4=O)ccc3o2)c2cc(NC(=O)C3CC3)ncc12` [Example 929, N-(8-(methylamino)-5-(5-(3-oxomorpholino)benzo[d]oxazol-2-yl)-2,7-naphthyridin-3-yl)cyclopropanecarboxamide], in that order: at most 500 nM and at most 100 nM.
For `CNc1ncc(-c2nc3cc(OC)ccc3s2)c2cc(NC(=O)C3CC3)ncc12` [Example 930, N-(5-(5-methoxybenzo[d]thiazol-2-yl)-8-(methylamino)-2,7-naphthyridin-3-yl)cyclopropanecarboxamide], the IC50 in test [1] was at most 500 nM. In addition, the Kd in test [2] was at most 100 nM.
In the case of `C=C(C)c1ccc2oc(-c3cnc(NC)c4cnc(NC(=O)C5CC5)cc34)nc2c1` [Example 931, N-(8-(methylamino)-5-(5-(prop-1-en-2-yl)benzo[d]oxazol-2-yl)-2,7-naphthyridin-3-yl)cyclopropanecarboxamide], the IC50 in test [1] was at most 500 nM. In test [2], the Kd was at most 100 nM.

The values above are taken from US20240025906A1 (NEURON23, INC., priority 2022, published 2024).
